# Results from patent publication US10933068B2, “Modulators of DUX4 for regulation of muscle function” (GENEA BIOCELLS USA (HOLDINGS), INC., priority 2016, dated 2021).
# pEC50: −log10 of the molar value.
# Tests used:
# [1] = test system: Normal cell lines (Genea 002 and Genea 015) and an FSHD-affected cell line (Genea 096); assay: Phenotypic marker screen (Example 2): cell count / toxicity; assay type: cell-based, human; settings: compound added for 24 hours; for toxicity (cell count): analyzed at the end of the myotube stage, cell lines tested overall
# Description: (§1) Briefly, stem cell lines were cultured in commercially available media, mTeSR (Stem Cell Technologies) or M2 (Genea Biocells) and dissociated into single cells using Passaging Solution (Genea Biocells). Cells were plated in Myogenic Induction Medium to induce myogenic differentiation and incubated at 37° C. and 5% CO2 for 7 to 10 days while performing media changes every other day. Once confluent, cells were dissociated into single cells using Passaging Solution and replated in Myoblast Medium (Genea Biocells) while performing media changes every other day. After 7-10 days the medium was switched to Myotube Medium (Genea Biocells) without any further media changes.
# In one example, experiments are set up according to Example 1 with cells being cultured in collagen 1-coated optical bottom 96-well plates. At the end of the culture period cells are fixed with 4% formalin and immunofluorescence stained for DUX4, Ki67, MyoD and/or MF20 or MHC. […] Staining with MF20 or MHC is used to visualize myotube morphology. High-content screening is performed to quantitatively measure the proportion of DUX4, Ki67 and MyoD-positive cells as well as myotube diameter and the number of nuclei per myotube.
# (§2) Normal cell lines (Genea 002 and Genea 015) and an FSHD-affected cell line (Genea 096) were cultured and differentiated according to Example 1. Compounds were added for 24 hours either at the beginning of the myoblast stage or at the end of the myoblast stage. Cells were further differentiated to myotubes and analyzed 7 days later at the end of the myotube stage (see FIG. 2) by immunofluorescence staining for MyoD, Ki67 and MF20.
# [2] = test system: Genea049 reporter cell line; assay: Cell death / overall cell numbers by video microscopy; assay type: cell-based, human; settings: 24 hours pulse at the beginning of the myoblast stage
# Description: In another example, Genea049 reporter cell line was differentiated according to Example 1 and the compounds were added for 24 hours at the beginning of the myoblast stage. Cells were further differentiated to myotubes (see FIG. 2) and analyzed continuously by video fluorescence microscopy using an Incucyte Zoom instrument (Essen Bioscience).
# DUX4-GFP reporter [3] = assay: Chemically induced DUX4-GFP reporter induction (ASK10 and analogs); assay type: cell-based, human
# Excerpt: Cells were transduced with a lentivirus coding for a synthetic DUX4-responsive promoter driving a nuclear turboGFP reporter gene ([…] et al., 2015) and selected using G418 antibiotic (Thermo Fisher). Myogenic differentiation was induced using the Genea Biocells muscle differentiation protocol (Caron et al., 2016). […] Media was changed every other day for 10 days. Myogenic precursors were then re-seeded by treatment with Passaging Solution (Genea Biocells) followed by Neutralizing Solution (Genea Biocells), were pelleted, and were plated at 2500 cells/cm2 in Stage 2 Myoblast Medium (Genea Biocells). […] After treatment, confluent myoblasts were switched to Stage 3 Myotube Medium (Genea Biocells). Cells were imaged hourly for phase and DUX4-GFP reporter fluorescence with the Incucyte live cell imaging system (Essen Bioscience) and Incucyte analysis software reported GFP+ events/mm2. […] Nuclei were quantified using the In Cell 6000 imaging and analysis suite. The system as described herein can be used as a sensitive low-, medium- or high-throughput screening assay to identify compounds that suppress DUX4 following an experimental procedure as outlined in FIG. 19. […] Test compounds are added either at the beginning of differentiation stage 2 or stage 3 and may be present throughput the experiment.
# [4] = test system: normal (Genea016) and FSHD-affected (Genea049 and Genea050) cell lines; assay: Timing of compound contact: cell counts; assay type: cell-based, human
# Description: as §1, with “changes. After 4-7 days many multi-nucleated myotubes were observed and the cells were analyzed using a suitable assay.” for “changes.”
# (§3) In another example, normal (Genea016) and FSHD-affected (Genea049 and Genea050) cell lines were differentiated according to Example 1. A DNA methyltransferase inhibitor (Compound #1) (ASK10) or a histone methyltransferase inhibitor (Compound #2) (ASK19) was added for 24 hours either at the beginning of the myoblast stage (Group 1) or at the end of the myoblast stage (Group 2). Cells were further differentiated to myotubes and analyzed 7 days later at the end of the myotube stage (see FIG. 2). Effects on cell counts (FIGS. 11A and 11B) and MF20-positive myotubes (FIGS. 12A and 12B) were assessed.
# [5] = test system: FSHD-affected Gen049 human Embryonic Stem Cells (hESCs); assay: ASK10 cytotoxicity in DUX4-GFP induction experiments; assay type: cell-based; settings: FIG. 11A cited
# Description: Precursors were then converted to myoblasts by culture in Stage 2 Medium for 7 days with media changes every second day until confluence. […] After treatment, confluent myoblasts were switched to Stage 3 Myotube Medium (Genea Biocells). Cells were imaged hourly for phase and DUX4-GFP reporter fluorescence with the Incucyte live cell imaging system (Essen Bioscience) and Incucyte analysis software reported GFP+ events/mm2. […] Nuclei were quantified using the In Cell 6000 imaging and analysis suite.
# [6] = test system: DUX4 reporter in the FSHD-affected Genea049 reporter cell line; assay: DUX4 reporter, high-content imaging; assay type: cell-based, human; settings: added for 24 hours at the end of the myoblast stage; analyzed 7 days later
# Description: (§4) Lentivirus constructs were used to stably integrate a DUX4 reporter into human embryonic stem cell lines (FIG. 5). Cells were plated in collagen I-coated 12-well plates (Corning BIOCOAT™-Cat #354500) in M2 hESC maintenance medium (Genea Biocells). Since cell lines grow at different rates and may optimally transduce at distinct cell densities, each line was plated at four different cell densities and transduced for 2 hours using a vector preparations diluted at 1:20 (50 ul/ml) in M2 medium containing 8 ug/ml polybrene. A pilot “kill curve” was established using the same non-transfected cell lines to help define the baseline antibiotic concentration required during the selection process. Based on the results, all transduced cells were selected with 300 ug/ml of G418 for at least 10 days. The antibiotic selected cells were further expanded in M2 (2× T175 flasks for each cell line) and samples were cryopreserved as stocks of 0.5 to 1×10^6 cells/vial.
# In another example, Genea049 reporter cell line was differentiated according to Example 1 and the compounds were added for 24 hours at the end of the myoblast stage. Cells were further differentiated to myotubes and analyzed 7 days later at the end of the myotube stage (see FIG. 2) by fixation, counterstaining nuclei with Hoechst and visualizing nuclei and the reporter by high-content imaging.
# [7] = test system: Normal cell lines (Genea 002 and Genea 015) and an FSHD-affected cell line (Genea 096); assay: Phenotypic marker screen (Example 2): myogenesis, MF20 and myotube length; assay type: cell-based, human; settings: compound added for 24 hours
# Description: as §1
# In one example, experiments are set up according to Example 1 with cells being cultured in collagen 1-coated optical bottom 96-well plates. […] High-content screening is performed to quantitatively measure the proportion of DUX4, Ki67 and MyoD-positive cells as well as myotube diameter and the number of nuclei per myotube.
# as §2, with “Compounds were added for 24 hours either at the beginning of the myoblast stage or at the end of the myoblast stage.” left out
# [8] = test system: DUX4 reporter in the FSHD-affected Genea049 reporter cell line; assay: DUX4 reporter, time-lapse video fluorescence microscopy; assay type: cell-based, human; settings: added for 24 hours at the beginning of the myoblast stage; analyzed continuously
# Description: as §4
# In another example, experiments are set up according to Example 1 with FSHD-affected DUX4 reporter cells being cultured in collagen I-coated 96-well plates. […] The cells are continuously observed by time-lapse video microscopy (IncuCyte Zoom, Essen Bioscience) and the number of GFP-positive (DUX4-expressing) nuclei are detected and quantified throughout the culture period. […]
# [9] = test system: normal (Genea016) and FSHD-affected (Genea049 and Genea050) cell lines; assay: Timing of compound contact: MF20-positive myotubes; assay type: cell-based, human; settings: 24 hours treatment, analyzed at the end of the myotube stage
# Description: as §1, with “changes. After 4-7 days many multi-nucleated myotubes were observed and the cells were analyzed using a suitable assay.” for “changes.”
# as §3
# DUX4-GFP reporter [10] = assay: Rescue of ASK10- / ASK10 analog-induced DUX4-GFP by ASK19 pre-treatment; assay type: cell-based, human
# Description: Genea's FSHD-affected Gen049 human Embryonic Stem Cells (hESCs) were cultured on geltrex (Thermo Fisher) using the feeder-free mTeSR system (StemCell Technologies). Cells were transduced with a lentivirus coding for a synthetic DUX4-responsive promoter driving a nuclear turboGFP reporter gene (Rickard et al., 2015) and selected using G418 antibiotic (Thermo Fisher). Myogenic differentiation was induced using the Genea Biocells muscle differentiation protocol (Caron et al., 2016). Reporter stem cells were treated with Accutase (StemCell Technologies) and plated as single cells at 5200 cells/cm2, then changed to Stage 1 Myogenic Induction Medium (Genea Biocells). Media was changed every other day for 10 days. Myogenic precursors were then re-seeded by treatment with Passaging Solution (Genea Biocells) followed by Neutralizing Solution (Genea Biocells), were pelleted, and were plated at 2500 cells/cm2 in Stage 2 Myoblast Medium (Genea Biocells).
# In rescue experiments, Stage 2 Day 1 cells were then treated with either 1 uM ASK19 or DMSO vehicle for 24 hours. Precursors were then converted to myoblasts by culture in Stage 2 Medium for 7 days with media changes every second day until confluence. Myoblasts were passaged and seeded at 9000 cells/cm2 in 96 well format, allowed to grow to confluence, and treated in Stage 2 Medium for indicated time (0-48 hours) with 0.01 uM-3 uM of ASK10, ASK10 analog, DMSO vehicle, or media only (FIGS. 15A-15B). After treatment, confluent myoblasts were switched to Stage 3 Myotube Medium (Genea Biocells). Cells were imaged hourly for phase and DUX4-GFP reporter fluorescence with the Incucyte live cell imaging system (Essen Bioscience) and Incucyte analysis software reported GFP+ events/mm2. After imaging, cells were fixed in 10% Formalin (Thermo Fisher) for 15 minutes and stained for 2 hours using PBS (Invitrogen) with 5% BSA (Thermo Fisher), 0.25% Triton-X (Thermo Fisher), and 1:5000 Hoechst (Thermo Fisher) DNA dye. Nuclei were quantified using the In Cell 6000 imaging and analysis suite.
# DUX4 expression = assay: Chaetocin induction of DUX4 expression, immunofluorescence staining; assay type: cell-based, human; settings: myotubes from FSHD-affected cell lines, DUX4 E5-5 antibody
# Description: as §1, with “changes. After 4-7 days many multi-nucleated myotubes were observed and the cells were analyzed using a suitable assay.” for “changes.”
# (§5) In myotubes from FSHD-affected cell lines DUX4 expression was observed by immunofluorescence staining using DUX4 E5-5 antibody, either spontaneously or by transfecting cells with a DUX4 expression vector (FIG. 3). In some cases, the expression of DUX4 in myogenic cells may be a rare event. Thus, to increase the assay window and sensitivity, chaetocin was used to increase the number of cells expressing DUX4 (FIG. 4A). […] In some examples, compounds may be screened in the presence of 50-200 nM chaetocin, a compound described to result in elevated levels of DUX4 expression in human myoblast cultures (FIG. 2).
# [11] = test system: myotubes from FSHD-affected cell lines; assay: Chaetocin toxicity, total nuclei count; assay type: cell-based, human; settings: at 50-100 nM
# Description: as §5
compound,measurement,setting,value
"Nc1ncn([C@H]2C[C@H](O)[C@@H](CO)O2)c(=O)n1 [ASK10, decitabine]",toxicity (cell count),[1],highly toxic at higher doses
same,toxicity to FSHD-affected cells,[1]; FSHD-affected cells (Genea 096),less so
same,time of cell death after the compound had been removed,[2],6 to 7 days
same,pEC50,"DUX4-GFP reporter [3]; Homo sapiens, DUX4-GFP cell number per well, read-out: EC50 at which the most significant DUX4 expression induction was detected",≤ 6.00
same,DUX4 expression activation versus vehicle control,DUX4-GFP reporter [3]; about 48 hours post-exposure,12-15 fold
same,time at which DUX4 induction plateaus,DUX4-GFP reporter [3]; post-exposure,about 120 hours
same,"toxicity, normal versus FSHD-affected myoblasts",[4]; 24 hours treatment,much more toxic for normal myoblasts than for FSHD-affected myoblasts
same,"toxicity (cell counts), FSHD","[4]; added at the end of the myoblast stage (Group 2), FSHD",not toxic
same,"toxicity (cell counts), normal","[4]; added at the end of the myoblast stage (Group 2), normal",only mildly toxic
same,toxicity (cell counts),[4]; added for 24 hours at the beginning of the myoblast stage (Group 1),significant toxicity at higher doses
same,cytotoxicity,[5],did not display any noticeable cytotoxicity
"CC[C@H](C)n1cc(C)c2c(C(=O)NCc3c(C)cc(C)[nH]c3=O)cc(-c3ccc(N4CCNCC4)nc3)cc21 [ASK19, GSK126]",DUX4-positive cells,[6],no effect
same,"myogenesis, cells expressing MF20",[7]; analyzed at the end of the myotube stage,more MF20-positive cells
same,myotube length,[7]; all cell lines tested,longer myotubes
same,DUX4-positive cells,[8],suppressed DUX4 expression and/or function
same,MF20-positive myotubes (myogenesis),[9],dose-dependent increase
same,toxicity (cell count),[1],not toxic
same,toxicity (cell counts),[4]; any of the cell lines under any treatment regimen,not toxic
same,pEC50,"DUX4-GFP reporter [10]; ASK10- and ASK10-15-induced, tentative, read-out: EC50 of rescue of induced DUX4-GFP production",6.30 to 6.60
same,"GFP+ events over time, ASK19/ASK10 curve","DUX4-GFP reporter [10]; ASK19 pre-treatment then ASK10, FIG. 18",extends along the bottom of the graph
same,"GFP+ events over time, ASK19/ASK10-15 curve","DUX4-GFP reporter [10]; ASK19 pre-treatment then ASK10-15, FIG. 18",extends along the bottom of the graph
same,rescue of ASK10- and ASK10 analog-induced DUX4 activation,DUX4-GFP reporter [10]; pre-treatment with ASK19,rescues
CN1C(=O)[C@@]23C[C@]4([C@]56C[C@@]78SS[C@@](CO)(C(=O)N7[C@H]5Nc5ccccc56)N(C)C8=O)c5ccccc5N[C@@H]4N2C(=O)[C@]1(CO)SS3 [chaetocin],chaetocin concentration found to induce DUX4 expression,DUX4 expression,50 to 100 nM
same,toxicity,[11],only mild toxicity
